Active and inactive are the calls of the source. The calls are words filed in the database; no cut-off is given here.
Legend:
[1] = test system: SH-SY5Y; experiment: Cytotoxicity against human SH-SY5Y cells at 0.3 uM after 24 hrs by MTT assay; type: cell-based
[2] = species on record: Bos taurus; experiment: Inhibition of L-type voltage dependent calcium channel in bovine Chromaffin cells assessed as reduction in K+-induced calcium current amplitude at 10 uM preincubated for 5 mins followed by potassium challenge measured by Fluo-4AM dye based fluorescence assay relative to control; type: cell-based
[3] = species on record: Bos taurus; experiment: Inhibition of L-type voltage dependent calcium channel in bovine Chromaffin cells assessed as reduction in K+-induced calcium transient current area at 10 uM preincubated for 5 mins followed by potassium challenge measured by Fluo-4AM dye based fluorescence assay relative to control; type: cell-based
[4] = test system: SH-SY5Y; experiment: Neuroprotective activity against oxygen glucose deprivation/re-oxygenation-induced mitochondrial oxidative stress in human SH-SY5Y cells assessed as cell survival at 0.3 uM pretreated for 24 hrs followed by 4 hrs incubation under oxygen glucose deprivation medium and subsequent exposure to normoxic condition by MTT assay relative to control; type: functional; conditions: read-out: Survival
[5] = test system: Hippocampus; experiment: Neuroprotective activity in oxygen glucose deprivation/re-oxygenation-induced Sprague-Dawley rat hippocampal slice cerebral ischemia model assessed as cell viability at 3 uM incubated for 2 hrs under normoxic condition by MTT assay (reference value: 40%); type: functional
[6] = Inhibition of L-type voltage dependent calcium channel in bovine Chromaffin cells assessed as reduction in K+-induced cytosolic free calcium transient current preincubated for 5 mins followed by potassium challenge measured by Fluo-4AM dye based fluorescence assay; type: cell-based; conditions: Bos taurus
[7] = test system: SH-SY5Y; experiment: Neuroprotective activity against rotenone/oligomycin A-induced mitochondrial oxidative stress in human SH-SY5Y cells assessed as cell survival at 0.3 uM pretreated for 24 hrs followed by rotenone/oligomycin A challenge measured after 24 hrs by MTT assay relative to control; type: functional; conditions: read-out: Survival
[8] = Antioxidant activity assessed as oxygen radical absorbance capacity at 10 uM; type: functional
[9] = molecular target: T1, Voltage-gated L-type calcium channel (Homo sapiens, UniProt Q13936+Q13698+Q01668+O60840); experiment: (§1) Inhibition of L-type voltage dependent calcium channel in human SH-SY5Y cells assessed as reduction in K+-induced cytosolic free calcium transient current preincubated for 15 mins followed by potassium challenge measured for 14 secs by Fluo-4AM dye based fluorescence assay; type: cell-based
[10] = physchem; conditions: PAMPA, pH 7.4
Description: Permeability of the compound at pH 7.4 at 1 mg/ml after 4 hrs by PAMPA-BBB assay

[11] = molecular target: Acetylcholinesterase (Homo sapiens, UniProt P22303); experiment: Inhibition of recombinant human AChE expressed in HEK293 cells using acetylthiocholine iodide as substrate pretreated for 5 mins followed by substrate addition measured for 5 mins by UV-Vis spectrophotometric method
[12] = molecular target: Cholinesterase (Homo sapiens, UniProt P06276); experiment: Inhibition of human serum BuChE using butyrylthiocholine iodide as substrate pretreated for 5 mins followed by substrate addition measured for 5 mins by UV-Vis spectrophotometric method
[13] = species on record: Homo sapiens; experiment: Ratio of IC50 for recombinant human AChE expressed in HEK293 cells to IC50 for human serum BuChE; type: cell-based
[14] = test system: Hippocampus; experiment: Neuroprotective activity in oxygen glucose deprivation/re-oxygenation-induced Sprague-Dawley rat hippocampal slice cerebral ischemia model assessed as cell viability at 1 uM incubated for 2 hrs under normoxic condition by MTT assay (reference value: 40%); type: functional
[15] = molecular target: T1, Voltage-gated L-type calcium channel; experiment: as §1, with “current at 100 uM” for “current”, “assay relative to control” for “assay”; type: cell-based; conditions: 14 s
[16] = test system: Hippocampus; experiment: Neuroprotective activity in oxygen glucose deprivation/re-oxygenation-induced Sprague-Dawley rat hippocampal slice cerebral ischemia model assessed as increase in cell viability incubated for 2 hrs under normoxic condition by MTT assay; type: functional, tissue-based
[17] = Antioxidant activity assessed as oxygen radical absorbance capacity at 10 uM relative to trolox; type: functional

Cholinesterase, sequence (P06276 whole entry): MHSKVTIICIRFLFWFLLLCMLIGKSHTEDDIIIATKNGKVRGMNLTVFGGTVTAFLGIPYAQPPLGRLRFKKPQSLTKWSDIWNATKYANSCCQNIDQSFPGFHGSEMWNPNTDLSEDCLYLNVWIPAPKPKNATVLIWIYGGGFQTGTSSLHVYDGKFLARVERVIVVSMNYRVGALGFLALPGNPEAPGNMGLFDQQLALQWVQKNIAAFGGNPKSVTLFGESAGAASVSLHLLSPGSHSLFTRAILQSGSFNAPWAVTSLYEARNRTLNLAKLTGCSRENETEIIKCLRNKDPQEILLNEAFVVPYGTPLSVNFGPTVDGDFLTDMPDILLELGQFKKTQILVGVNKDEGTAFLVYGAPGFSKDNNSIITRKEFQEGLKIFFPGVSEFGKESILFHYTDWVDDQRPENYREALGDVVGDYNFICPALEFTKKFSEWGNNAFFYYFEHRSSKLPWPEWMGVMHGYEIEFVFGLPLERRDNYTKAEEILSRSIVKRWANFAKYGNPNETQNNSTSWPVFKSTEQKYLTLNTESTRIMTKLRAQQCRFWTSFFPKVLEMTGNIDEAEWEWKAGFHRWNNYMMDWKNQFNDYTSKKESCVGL
Acetylcholinesterase, sequence (P22303 whole entry): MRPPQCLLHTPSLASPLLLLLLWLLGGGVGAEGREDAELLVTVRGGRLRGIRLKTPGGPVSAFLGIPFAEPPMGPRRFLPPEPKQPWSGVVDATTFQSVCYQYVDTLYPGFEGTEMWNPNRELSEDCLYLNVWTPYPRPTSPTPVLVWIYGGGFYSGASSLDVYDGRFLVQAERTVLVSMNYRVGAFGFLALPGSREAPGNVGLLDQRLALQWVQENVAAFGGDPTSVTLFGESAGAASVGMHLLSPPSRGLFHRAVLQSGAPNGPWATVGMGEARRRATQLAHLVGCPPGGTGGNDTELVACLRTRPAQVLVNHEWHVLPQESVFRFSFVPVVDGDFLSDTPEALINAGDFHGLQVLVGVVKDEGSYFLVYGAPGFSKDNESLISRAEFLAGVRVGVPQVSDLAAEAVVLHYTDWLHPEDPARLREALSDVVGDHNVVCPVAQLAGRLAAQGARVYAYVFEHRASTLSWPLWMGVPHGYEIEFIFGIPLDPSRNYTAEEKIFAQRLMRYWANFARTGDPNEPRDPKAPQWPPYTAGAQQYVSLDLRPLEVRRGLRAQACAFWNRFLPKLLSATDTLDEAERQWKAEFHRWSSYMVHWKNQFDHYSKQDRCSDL

Row | SMILES | Activity [1] | inhibition [2] [%] | inhibition [3] [%] | viability at 0.3 µM [4] [%] | Activity [5] [%] | IC50 [6] [µM] | viability at 0.3 µM [7] [%] | Activity [8] | IC50 [9] [µM] | Papp at 4 h, 1 mg/ml [10] [×10⁻⁶ cm/s] | IC50 [11] [µM] | IC50 [12] [µM] | Ratio IC50 [13] | Activity [14] [%] | %max [15] [%] | Activity [16] | Activity [17] [%]
1 | CCCCCCOC(=O)[C@H](CCC(=O)NCCC1CCN(Cc2ccccc2)CC1)NC(=O)c1ccccc1 | Non-Toxic | 40 | 80 | 53.4 | 55 | 5.31 | 44.1 | inactive | 14.1 |  |  |  |  |  |  |  | 
2 | CCOC(=O)[C@H](CCC(=O)NCCC1CCN(Cc2ccccc2)CC1)NC(=O)c1ccc2cc(OC)ccc2c1 | Non-Toxic |  |  | 37.7 |  |  | 25.3 | inactive |  | 8.3 | 0.89 | 3.8 |  |  |  |  | 
3 | COc1ccc2[nH]cc(CCNC(C)=O)c2c1 [MELATONIN] |  |  |  | 31.4 |  |  | 33.4 |  |  |  |  |  |  |  |  |  | 
4 | COc1ccc2cc(C(=O)N[C@@H](CCC(=O)NCCC3CCN(Cc4ccccc4)CC3)C(=O)O)ccc2c1 | Non-Toxic |  |  | 45 |  |  | 35 | inactive |  |  | 15.2 | 97 |  |  |  |  | 
5 | CCOC(=O)CC[C@@H](NC(=O)OCc1ccccc1)C(=O)NCCC1CCN(Cc2ccccc2)CC1 | Non-Toxic |  |  | 47 |  |  | 31.6 | inactive |  | 16.7 | 3 | 0.17 | 10 |  |  |  | 
6 | CCOC(=O)CC[C@H](NC(=O)OCc1ccccc1)C(=O)NCCC1CCN(Cc2ccccc2)CC1 | Non-Toxic |  |  | 42.7 | 69 |  | 35.2 | inactive | 90.1 | 21 | 4.99 | 0.4 | 10 | 48 | 63 | Dose-dependent effect | 
7 | O=C(CC[C@@H](NC(=O)c1ccccc1)C(=O)O)NCCC1CCN(Cc2ccccc2)CC1 | Non-Toxic |  |  | 38.5 |  |  | 22.6 | inactive |  | 4.6 | 20 | 82 |  |  |  |  | 
8 | CCCCCCOC(=O)[C@@H](CCC(=O)NCCC1CCN(Cc2ccccc2)CC1)NC(=O)c1ccccc1 | Non-Toxic |  |  | 32.2 |  |  | 13 | inactive |  | 13.9 | 0.89 | 0.36 |  |  |  |  | 
9 | CCOC(=O)CC[C@@H](NC(=O)OCc1ccccc1)C(=O)OCC | Non-Toxic |  |  | 47.1 |  |  | 34.7 | inactive |  |  | > 10 | > 10 |  |  |  |  | 
10 | CCCCCCOC(=O)[C@H](CCC(=O)NCCC1CCN(Cc2ccccc2)CC1)NC(=O)c1c[nH]c2ccccc12 | Non-Toxic |  |  | 31.8 |  |  | 22.1 |  |  | 9.6 | 3.04 | 1.85 |  |  |  |  | 70 to 73
11 | O=C(CC[C@H](NC(=O)c1c[nH]c2ccccc12)C(=O)O)NCCC1CCN(Cc2ccccc2)CC1 | Non-Toxic |  |  | 48.4 |  |  | 34.6 |  |  | 1.8 | 6.4 | 71 |  |  |  |  | 70 to 73
12 | CCOC(=O)[C@@H](CCC(=O)NCCC1CCN(Cc2ccccc2)CC1)NC(=O)c1ccccc1 | Non-Toxic |  |  | 39.8 |  |  | 15.1 | inactive |  | 6.6 | 0.5 | 0.39 |  |  |  |  | 
13 | O=C(CC[C@H](NC(=O)c1ccccc1)C(=O)O)NCCC1CCN(Cc2ccccc2)CC1 | Non-Toxic |  |  | 50.6 |  |  | 46.5 | inactive |  | 3.5 | 0.76 | > 10 |  |  |  |  | 
14 | CCOC(=O)CC[C@H](NC(=O)OCc1ccccc1)C(=O)OCC | Non-Toxic |  |  | 51.6 |  |  | 37.3 | inactive |  |  | > 10 | > 10 |  |  |  |  | 
15 | CCOC(=O)[C@H](CCC(=O)NCCC1CCN(Cc2ccccc2)CC1)NC(=O)c1ccccc1 | Non-Toxic |  |  | 50.9 |  |  | 38.6 | inactive |  | 5.2 | 0.85 | 1.3 |  |  |  |  | 
16 | CCOC(=O)[C@H](CCC(=O)NCCC1CCN(Cc2ccccc2)CC1)NC(=O)c1c[nH]c2ccccc12 | Non-Toxic |  |  | 42.4 |  |  | 39.5 |  |  | 4.5 | 1.9 | 0.3 |  |  |  |  | 70 to 73

— ChEMBL document CHEMBL4049396, “Enzymatic and solid-phase synthesis of new donepezil-based L- and d-glutamic acid derivatives and their pharmacological evaluation in models related to Alzheimer's disease and cerebral ischemia” (Eur J Med Chem, 2017)
